Drawing on patent US20230339952A1, “MACROCYCLIC HETEROCYCLES AND USES THEREOF” (Kumquat Biosciences Inc., priority 2022, published 2023), this text covers IC50 for 20 molecules.

Read-outs that look alike come from different tables or passages of the source.

In one assay the target is SOS1 (Homo sapiens (Human), UniProt Q07889). Nature of the assay: Ras-SOS interaction assay (HTRF), K-Ras G13D utilized. The format is binding. The settings on record: K-Ras G13D.
For assay [1], the system named is NCI-H1975 (ATCC CRL-5908) cell line comprising an EGFR T790M L858R double mutation. Description: EGFR-SOS cellular inhibition assay (CellTiter-Glo cell proliferation). Format: cell-based. The settings on record: Homo sapiens, 120 h; NCI-H1975 cell proliferation, approximately 5 days; read-out: H1975 IC50. On the technique in general: Cellular ATP, detected with luciferase, serves as a proxy for viable cell number.
Experimental: A CellTiter-Glo (CTG) luminescent based assay (Promega) is used to assess growth of the cells, as a measurement of the ability of the compounds herein to inhibit EGFR signaling in the cells. […] The day after plating, cells are treated with a dilution series (e.g., a 9 point 3-fold dilution series) of the compounds herein (e.g., approximately 125 μL final volume per well).

SOS1, sequence (Q07889 564-1049): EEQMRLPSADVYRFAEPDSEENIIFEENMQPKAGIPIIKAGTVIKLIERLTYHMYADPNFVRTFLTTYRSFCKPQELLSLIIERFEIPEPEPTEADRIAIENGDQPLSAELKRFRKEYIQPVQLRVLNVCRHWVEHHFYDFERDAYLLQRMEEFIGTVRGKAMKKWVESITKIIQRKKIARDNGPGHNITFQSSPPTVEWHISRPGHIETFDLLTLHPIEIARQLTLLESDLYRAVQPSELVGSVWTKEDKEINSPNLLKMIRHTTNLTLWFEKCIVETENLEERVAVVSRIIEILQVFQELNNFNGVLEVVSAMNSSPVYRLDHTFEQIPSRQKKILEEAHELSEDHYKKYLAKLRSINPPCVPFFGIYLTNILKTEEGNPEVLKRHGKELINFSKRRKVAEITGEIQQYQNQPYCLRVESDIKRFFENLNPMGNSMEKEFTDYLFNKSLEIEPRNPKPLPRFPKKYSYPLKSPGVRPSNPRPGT

What is called IC50 is the concentration that gives 50% inhibition. Take `C[C@H]1Nc2ncnc3c2cc(C2CCS(=O)(=O)CC2)c(=O)n3CCCCCC(C)(O)CN2CCC(CC2)C(F)(F)c2cccc1c2` (stereo partly drawn) [Compound 110, (4R)-6^6-(1,1-dioxidotetrahydro-2H-thiopyran-4-yl)-2,2-difluoro-12-hydroxy-4,12-dimethyl-6^7,6^8-dihydro-5-aza-6(4,8)-pyrido[2,3-d]pyrimidina-1(4,1)-piperidina-3(1,3)-benzenacyclotridecaphan-6^7-one]: the values for the IC50 (at SOS1 (read-out: SOS1 IC50); in assay [1]) were below 100 nM and below 1000 nM, respectively.
`C[C@H]1Nc2ncnc3c2cc(C2(C#N)CC2)c(=O)n3CC(=O)N(C)CCCCN2CCC(CC2)C(F)(F)c2cccc1c2F` [Compound 128, 1-((4R)-3^2,2,2-trifluoro-4,9-dimethyl-6^7,8-dioxo-6^7, 6^8-dihydro-5,9-diaza-6(4,8)-pyrido[2,3-d]pyrimidina-1(4,1)-piperidina-3(1,3)-benzenacyclotridecaphane-6^6-yl)cyclopropane-1-carbonitrile]: the results for the IC50 (on SOS1 (read-out: SOS1 IC50); in assay [1]) were below 100 nM and below 1000 nM, respectively.
The matching figures for `C[C@H]1Nc2ncnc3c2cc(C2CCS(=O)(=O)CC2)c(=O)n3CCCNC(=O)CCN2CCC(CC2)C(F)(F)c2cccc1c2` [Compound 91, (4R)-6^6-(1,1-dioxidotetrahydro-2H-thiopyran-4-yl)-2,2-difluoro-4-methyl-6^7,6^8-dihydro-5,10-diaza-6(4,8)-pyrido[2,3-d]pyrimidina-1(4,1)-piperidina-3(1,3)-benzenacyclotridecaphane-6^7,11-dione]: below 100 nM and below 1000 nM.
The matching figures for `Cc1nc2c3cc(C4(C#N)CC4)c(=O)n(c3n1)CCCC/C=C\COCC(F)(F)c1cccc(c1F)[C@@H](C)N2` [Compound 105, 1-((3R,Z)-4^2,5,5-trifluoro-1^2,3-dimethyl-1^7-oxo-1^7,1^8-dihydro-7-oxa-2-aza-1(4,8)-pyrido[2,3-d]pyrimidina-4(1,3)-benzenacyclotetradecaphan-9-en-1^6-yl)cyclopropane-1-carbonitrile]: below 100 nM and below 1000 nM.
The matching figures for `CC(C)N1CCC(c2cc3c4ncnc3n(c2=O)CCCCCCCN2CCC(CC2)C(F)(F)c2cccc(c2F)[C@@H](C)N4)CC1` [Compound 162, (4R)-3^2,2,2-trifluoro-6^6-(1-isopropylpiperidin-4-yl)-4-methyl-6^7,6^8-dihydro-5-aza-6(4,8)-pyrido[2,3-d]pyrimidina-1(4,1)-piperidina-3(1,3)-benzenacyclotridecaphan-6^7-one]: below 100 nM and below 1000 nM.
In the case of `CC(C)N1CCN(c2cc3c4ncnc3n(c2=O)CCCCCCN2CCC(CC2)CC(F)(F)c2cccc(c2F)[C@@H](C)N4)CC1` [Compound 16, (3R)-4^2,5,5-trifluoro-1^6-(4-isopropylpiperazin-1-yl)-3-methyl-1^7,1^8-dihydro-2-aza-1(4,8)-pyrido[2,3-d]pyrimidina-7(4,1)-piperidina-4(1,3)-benzenacyclotridecaphan-1^7-one], the IC50 on SOS1 (read-out: SOS1 IC50) is below 100 nM; in assay [1] it was below 1000 nM.
The matching figures for `C[C@H]1Nc2ncnc3c2cc(C2CCS(=O)(=O)CC2)c(=O)n3CCCCCCCN2C3CCC2CC(C3)C(F)(F)c2cccc1c2F` [Compound 113, (11S,15R,4R)-6^6-(1,1-dioxidotetrahydro-2H-thiopyran-4-yl)-32,2,2-trifluoro-4-methyl-6^7,6^8-dihydro-1^8,5-diaza-6(4,8)-pyrido[2,3-d]pyrimidina-1(3,8)-bicyclo[3.2.1]octana-3(1,3)-benzenacyclotridecaphan-6^7-one]: below 100 nM and below 1000 nM.
For the molecule `C[C@H]1Nc2ncnc3c2cc(C2CCS(=O)(=O)CC2)c(=O)n3CCCCn2cc(nn2)CN2CCC(CC2)C(F)(F)c2cccc1c2` [Compound 160, (6R,Z)-8^6-(1,1-dioxidotetrahydro-2H-thiopyran-4-yl)-4,4-difluoro-6-methyl-8^7,8^8-dihydro-1^1H-7-aza-8 (4,8)-pyrido[2,3-d]pyrimidina-3(1,4)-piperidina-1(4,1)-triazola-5(1,3)-benzenacyclododecaphan-8^7-one], the figures for the IC50 (on SOS1 (read-out: SOS1 IC50); in assay [1]) were below 100 nM and below 1000 nM, respectively.
In the case of `CC(C)N1CCN(c2cc3c4ncnc3n(c2=O)CC(=O)NCCCCN2CCC(CC2)C(F)(F)c2cccc(c2)[C@@H](C)N4)CC1` [Compound 53, (4R)-2,2-difluoro-6^6-(4-isopropylpiperazin-1-yl)-4-methyl-6^7,6^8-dihydro-5,9-diaza-6(4,8)-pyrido[2,3-d]pyrimidina-1(4,1)-piperidina-3(1,3)-benzenacyclotridecaphane-6^7,8-dione], the IC50 on SOS1 (read-out: SOS1 IC50) is below 100 nM; in assay [1], below 1000 nM.
The matching figures for `Cc1nc2c3cc(C4(C#N)CC4)c(=O)n(c3n1)CC/C=C\CN1CCC(CC1)C(F)(F)c1cccc(c1)[C@@H](C)N2` [Compound 172, 1-((4R,Z)-2,2-difluoro-6^2,4-dimethyl-6^7-oxo-6^7,6^8-dihydro-5-aza-6(4,8)-pyrido[2,3-d]pyrimidina-1(4,1)-piperidina-3(1,3)-benzenacycloundecaphan-9-en-6^6-yl)cyclopropane-1-carbonitrile]: 100 to 5000 nM and below 1000 nM.
For `COc1cc2nc(C)nc3c2cc1OCCOCCOCCOCCOCCNCc1ccc(F)cc1C1=CC=C(S1)C(C)N3` (centres unmarked) [Compound 138, 1^5-fluoro-5^7-methoxy-5^2,3-dimethyl-6,9,12,15,18-pentaoxa-4,21-diaza-5(4,6)-quinazolina-2(2,5)-thiophena-1(1,2)-benzenacyclodocosaphane], the half-inhibitory concentration (IC50) at SOS1 (read-out: IC50 value against SOS1) was below 50 nM; at SOS1 (read-out: SOS1 IC50), below 100 nM; in assay [1], below 1000 nM.
Turning to `CC(C)N1CCN(c2cc3c4ncnc3n(c2=O)CCCCCCCN2CCC(CC2)C(F)(F)c2cccc(c2F)[C@@H](C)N4)CC1` [Compound 21, (4R)-3^2,2,2-trifluoro-6^6-(4-isopropylpiperazin-1-yl)-4-methyl-6^7,6^8-dihydro-5-aza-6(4,8)-pyrido[2,3-d]pyrimidina-1(4,1)-piperidina-3(1,3)-benzenacyclotridecaphan-6^7-one], the IC50 at SOS1 (read-out: SOS1 IC50) was below 100 nM; in assay [1] it was below 1000 nM.
The matching figures for `C[C@H]1Nc2ncnc3c2cc(C2(C#N)CC2)c(=O)n3CCCn2cc(nn2)CN2CCC(CC2)C(F)(F)c2cccc1c2` [Compound 95, 1-((6R,Z)-4,4-difluoro-6-methyl-8^7-oxo-8^7,8^8-dihydro-11H-7-aza-8(4,8)-pyrido[2,3-d]pyrimidina-3(1,4)-piperidina-1(4,1)-triazola-5(1,3)-benzenacycloundecaphane-8^6-yl)cyclopropane-1-carbonitrile]: below 100 nM and below 1000 nM.
The matching figures for `C[C@H]1Nc2ncnc3c2cc(C2(C#N)CCS(=O)(=O)CC2)c(=O)n3CCCCCCN2CCC(CC2)CC(F)(F)c2cccc1c2F` [Compound 23, 4-((3R)-4^2,5,5-trifluoro-3-methyl-1^7-oxo-1^7,1^8-dihydro-2-aza-1(4,8)-pyrido[2,3-d]pyrimidina-7(4,1)-piperidina-4(1,3)-benzenacyclotridecaphane-1^6-yl)tetrahydro-2H-thiopyran-4-carbonitrile 1,1-dioxide]: below 100 nM and below 1000 nM.
The matching figures for `C[C@H]1Nc2ncnc3c2cc(C2CCS(=O)(=O)CC2)c(=O)n3CCCCCCCN2CCC(CC2)C(F)(F)c2cccc1c2` [Compound 83, (4R)-6^6-(1,1-dioxidotetrahydro-2H-thiopyran-4-yl)-2,2-difluoro-4-methyl-6^7,6^8-dihydro-5-aza-6(4,8)-pyrido[2,3-d]pyrimidina-1(4,1)-piperidina-3(1,3)-benzenacyclotridecaphan-6^7-one]: below 100 nM and below 1000 nM.
With `CC1CC/C=C\CCn2c(=O)c(C3(C#N)CC3)cc3c(ncnc32)N[C@H](C)c2cccc(c2F)C(F)(F)C2CCN1CC2` (stereo partly drawn) [Compound 24, 1-((4R,Z)-3^2,2,2-trifluoro-4,13-dimethyl-6^7-oxo-6^7,6^8-dihydro-5-aza-6(4,8)-pyrido[2,3-d]pyrimidina-1(4,1)-piperidina-3(1,3)-benzenacyclotridecaphan-9-en-6^6-yl)cyclopropane-1-carbonitrile], the IC50 at SOS1 (read-out: SOS1 IC50) was below 100 nM; in assay [1], below 1000 nM.
Taken in the same sequence, the figures for `C[C@H]1Nc2ncnc3c2cc(C2(C#N)CC2)c(=O)n3CCCC/C=C/CN2CCC(CC2(C)C)C(F)(F)c2cccc1c2` (stereo partly drawn) [Compound 70, 1-((4R,E)-2,2-difluoro-1^2,1^2,4-trimethyl-6^7-oxo-6^7,6^8-dihydro-5-aza-6(4,8)-pyrido[2,3-d]pyrimidina-1(4,1)-piperidina-3(1,3)-benzenacyclotridecaphan-11-en-6^6-yl)cyclopropane-1-carbonitrile] were below 100 nM and below 1000 nM.
Taken in the same sequence, the figures for `C[C@H]1Nc2ncnc3c2cc(C2(C#N)CC2)c(=O)n3CCCNC(=O)CCN2CCC(CC2)C(F)(F)c2cccc1c2` [Compound 144, 1-((4R)-2,2-difluoro-4-methyl-6^7,11-dioxo-6^7,6^8-dihydro-5,10-diaza-6(4,8)-pyrido[2,3-d]pyrimidina-1(4,1)-piperidina-3(1,3)-benzenacyclotridecaphane-6^6-yl)cyclopropane-1-carbonitrile] were below 100 nM and below 1000 nM.
`CC1C/C=C\CCn2c(=O)c(C3CCS(=O)(=O)CC3)cc3c(ncnc32)N[C@H](C)c2cccc(c2F)C(F)(F)C2CCN(CC2)C1` (stereo partly drawn) [Compound 107, (4R,Z)-6^6-(1,1-dioxidotetrahydro-2H-thiopyran-4-yl)-3^2,2,2-trifluoro-4,12-dimethyl-6^7,6^8-dihydro-5-aza-6(4,8)-pyrido[2,3-d]pyrimidina-1(4,1)-piperidina-3(1,3)-benzenacyclotridecaphan-9-en-6^7-one]: the values for the IC50 (at SOS1 (read-out: SOS1 IC50); in assay [1]) were below 100 nM and below 1000 nM, respectively.
Taken in the same sequence, the figures for `C[C@H]1Nc2ncnc3c2cc(N2CCOCC2)c(=O)n3CCCCCCCN2CCC(CC2)C(F)(F)c2cccc1c2` [Compound 64, (4R)-2,2-difluoro-4-methyl-6^6-morpholino-6^7,6^8-dihydro-5-aza-6(4,8)-pyrido[2,3-d]pyrimidina-1(4,1)-piperidina-3(1,3)-benzenacyclotridecaphan-6^7-one] were below 100 nM and below 1000 nM.
